The values that follow come from patent US12059407B2, “Compositions and methods for delivery of macromolecules” (The Regents of the University of California, priority 2017, dated 2024).

Series [1] concerns HEK293T cells. Put plainly: Model study with Saporin: protein delivery. In kind it is cell-based. The conditions noted are these: HEK293T cells treated with only Saporin or only compound 1.
The test system of series [2] is HEK293T cells. Put plainly: Cytotoxicity assay in HEK293T cells. In kind it is cell-based.

Saporin: the “cell death, single agent only” value in the series with HEK293T cells [1] is “no cell death”.
As a reminder, the CC50 is the concentration that lowers cell viability or growth by half. Read a high CC50 as lower toxicity to the cells. The substance Triton X gave a CC50 with HEK293T cells [2] of 59 µM.
